Columns and labels:
[1] = system: dextran-induced aseptic (exudative) phlogosis in rabbit eye; assay: Anti-inflammatory activity: dextran-induced aseptic (exudative) phlogosis in rabbit eye; format: in vivo; conditions: for eyes without signs of phlogosis out of the total number of eyes treated: 3 drops every 6 hours, 4 treated eyes; for antiinflammatory activity (in words): compared with the corresponding cortisones
Experimental: 9 hyaluronic esters of cortisone, hydrocortisone and fluorocortisone (9 fluorohydrocortisone) identified by the code names HYC1-HYC9 were tested. Table 1 describes these compounds and gives the percentages of the number of carboxylic groups of HY which are esterified with the above corticosteroids, and where applicable the percentage esterified with simple aliphatic alcohols and those salified with alkaline metals (Na):
Aseptic (exudative) phlogosis was induced in 48 rabbits by intraocular injection of dextran (1% in saline, 0.1 ml). The various products were administered by instillation in the right eye (RE) of the rabbits, while in the left eye (LE) only vehicle was instilled.
The treament (3 drops every 6 hours) was begun immediately after the injection of dextran and was continued for 16 days.
Both eyes of each rabbit were observed through a slit lamp. In particular the following were examined: the state of the conjunctiva and corneal epithelium, the anterior chamber (presence of Tyndall effect), state of the iris and of the posterior segment of the eye. With a Goldmann lens, the state of the back of the eye was examined. The presence of signs of inflammation (hyperemia, exudate, cloudiness of the liquids, etc.) was recorded.
Values are expressed as percentages (number of eyes without signs of phlogosis out of the total number of eyes treated). In brackets are the number of treated eyes.

[2] = Absorption and bioavailability: plasma levels of hydrocortisone in rats; format: in vivo, male Sprague-Dawley rats
Experimental: Male Sprague-Dawley rats, with a body weight of 250-350 gr were used, obtained from Charles River-Calco (Como), fed ad libitum with water and compound feed in pellets, with the code name of 4RF 21, produced by "Italiana Mangimi", licensee of Charles River.
Hydrocortisone was administered in the form of sodium hemisuccinate salt at the dose of 1.34 mg/kg (corresponding to 1 mg/kg of hydrocortisone base) by general intravenous route and at the dose of 1.34 mg/kg and 2.68 mg/ kg (corresponding to 2 mg/ kg of hydrocortisone base) by subcutaneouos route (the i.v. route was considered in order to determine the pharmacokinetic parameters which serve as a comparison for the evaluation of absorption of any other administration route).
The three HYC derivatives were administered by subcutaneous route at the dose of 6.5 and 13 mg/kg (doses corresponding to about 1 and 2 mg/kg in hydrocortisone base). […] All the compounds were injected at a constant volume of 1 ml/kg.
After administration, 0.3 ml of blood was drawn from each animal by cardiac puncture in the presence of anticoagulant (sodium heparin).
Blood drawing times were as follows: *15 mins, 30 mins, 60 mins, 120 mins, 180 min, 300 mins, 360 mins, 420 mins, 480 mins (*limited to the intraveneous route).
The hydrocortisone was dosed by radioimmunoassay method (Cortisolo Kit, Biodata, cod. 10394) using iodate tracing. […] The linearity of the method comes between 1 and 1000 ng/ml. The observation limit is 1 ng/ml.
The dosage of the cortisolemia in the rat is not influenced either by the base levels or by the circadian rhythms of this hormone, as the metabolic pattern of the endogenous glucocorticoid hormones in the rat, leads to the production of corticosterone and not cortisol (see E. L. Green: Biology of the laboratory mouse.)
In Table 3 are reported the results of the average plasma levels of hydrocortisone, after i.v. and s.c. injection (1 and 2 mg/kg). […] In Table 4 are reported the pharmacokinetic parameters of cortisol calculated graphically from the plasmatic decline curves. In Table 3 are reported the average levels of cortisol after subcutaneous administration of the three HYC derivatives at doses of 6.5 and 13 mg/kg (corresponding to about 1 and 2 mg/kg in hydrocortisone base). In Table 4 are reported the pharmacokinetic parameters relative to cortisol calculated graphically with the method of residues from the plasma absorption curve of the three HYC products.

[3] = 10 days from start of phlogosis
[4] = 12 days from start of phlogosis
[5] = 14 days from start of phlogosis
[6] = 16 days from start of phlogosis

Compound	eyes without signs of phlogosis out of the total number of eyes treated ([1]; 2 days from start of phlogosis) [%]	eyes without signs of phlogosis out of the total number of eyes treated ([1]; 4 days from start of phlogosis) [%]	eyes without signs of phlogosis out of the total number of eyes treated ([1]; 6 days from start of phlogosis) [%]	eyes without signs of phlogosis out of the total number of eyes treated ([1]; 8 days from start of phlogosis) [%]	eyes without signs of phlogosis out of the total number of eyes treated [1, 3] [%]	eyes without signs of phlogosis out of the total number of eyes treated [1, 4] [%]	eyes without signs of phlogosis out of the total number of eyes treated [1, 5] [%]	eyes without signs of phlogosis out of the total number of eyes treated [1, 6] [%]	antiinflammatory activity (in words) [1]	linearity of kinetics (in words) ([2]; cortisol plasma kinetics, dose dependence)	Cmax (in words) ([2]; rat, in vivo)	Tmax ([2]; rat, in vivo, sc) [min]	AUC at 8 h ([2]; rat, in vivo, sc, 1 mg/kg) [ng·h/mL]	Tmax ([2]; rat, in vivo, sc, 1 mg/kg) [min]	bioavailability ([2]; rat, in vivo, sc, 1 mg/kg) [%]	half-life ([2]; rat, in vivo, sc, 1 mg/kg) [min]	k el ([2]; rat, in vivo, sc, 1 mg/kg) [s⁻¹]
(partial and mixed) ethanol and cortisone ester of hyaluronic acid (HY) [HYC7]	0.0	0.0	0.0	25.0	50.0	100.0	100.0	100.0	–	–	–	–	–	–	–	–	–
(mixed) ethanol and fluorocortisone ester (C21) of hyaluronic acid (HY) [HYC6]	0.0	0.0	25.0	50.0	50.0	100.0	100.0	100.0	most efficient of these derivatives	–	–	–	–	–	–	–	–
C[C@]12CCC(=O)C=C1CC[C@@H]1[C@@H]2[C@@H](O)C[C@@]2(C)[C@H]1CC[C@]2(O)C(=O)CO [Hydrocortisone, hydrocortisone, reference compound]	0.0	0.0	0.0	25.0	25.0	50.0	100.0	100.0	–	linear	the same as the i.v. route levels at the same dose	~30	192	30	70.3	270	4.17e-05
(partial and mixed) ethanol and fluorocortisone esters (C21) of hyaluronic acid (HY) [HYC9]	0.0	0.0	0.0	25.0	25.0	50.0	100.0	100.0	–	–	–	–	–	–	–	–	–
(partial) fluorocortisone ester (C21) of hyaluronic acid (HY) [HYC3]	0.0	0.0	0.0	25.0	25.0	100.0	100.0	100.0	–	–	–	–	–	–	–	–	–
(partial) cortisone ester C21) of hyaluronic acid (HY) [HYC1]	0.0	0.0	0.0	25.0	50.0	50.0	100.0	100.0	–	–	–	–	–	–	–	–	–
C[C@]12CCC(=O)C=C1CC[C@H]1[C@@H]3CC[C@](O)(C(=O)CO)[C@@]3(C)C[C@H](O)[C@@]12F [Fluorocortis., 9 fluorohydrocortisone, reference compound]	0.0	0.0	0.0	0.0	25.0	50.0	100.0	100.0	–	–	–	–	–	–	–	–	–
C[C@]12CCC(=O)C=C1CC[C@@H]1[C@@H]2C(=O)C[C@@]2(C)[C@H]1CC[C@]2(O)C(=O)CO [Cortisone, cortisone, reference compound]	0.0	0.0	0.0	0.0	25.0	50.0	100.0	100.0	–	–	–	–	–	–	–	–	–
(mixed ethanol and cortisone ester (C21) of hyaluronic acid (HY) [HYC4]	0.0	0.0	25.0	50.0	50.0	100.0	100.0	100.0	most efficient of these derivatives	–	–	–	–	–	–	–	–
